According to patent US9114180B2, “Malodor neutralizing compositions containing acids and alicyclic ketones” (Robertet, Inc., priority 2012, dated 2015):
Where “and” joins values, the source holds several entries; their conditions need not be identical. Equal entries are not always repeated.

Tests used:
[1] = Malodor evaluation panel, synthetic bathroom malodor on cotton swatches; conditions: for Score of Ketone Alone @ 1%: average of 14; for Score of Combination @ 1% + 1%: ketone 1% + undecylenic acid 1%; for (Score of Acid) − (Score of Combination) / (Score of Ketone) − (Score of Combination): synthetic bathroom malodor; for (Score of Acid) − (Score of Combination): acid = undecylenic acid; for (Score of Ketone) − (Score of Combination): combination with undecylenic acid
[2] = Malodor evaluation panel, cat urine on cotton swatches; set-up: key to (Score of Ketone) − (Score of Combination) / (score of citric acid) − (score of combination): difference of malodor scores, 1 = very weak to 7 = very strong (control); conditions: for (Score of Ketone) − (Score of Combination) / (score of citric acid) − (score of combination): cat urine malodor, combination with citric acid; for Score of combination 1% + 1% / Score alone 1% (alicyclic ketone): remaining cat urine malodor; for Score of combination 1% + 1%: scale 1-7, ketone 1% + citric acid 1% in spray, average of 14; for Score alone 1% (alicyclic ketone): scale 1 very weak to 7 (control, very strong), ketone 1% in spray, average of 14 panelists
Text: The source of the malodor tested was cat urine. […] A period of three minutes was allowed for the urine to be absorbed by the fabric. Onto each swatch, 3.0 grams of a composition was sprayed. As a control, 3.0 grams of water was sprayed on certain swatches. Each swatch was placed in the middle of a two by two foot (61×61 cm) cubicle and all doors were closed. Actual testing began after thirty minutes. Each member of the panel was asked to sniff the malodor control first and was notified that the control has a rating of 7—indicating very strong malodor. They were then asked to proceed to sniff the other samples and provide a rating for malodor remaining. Thus, the remaining malodor was evaluated on a sliding scale, with 1 being very weak malodor. The panelists were instructed to ignore any fragrance that they may detect and rate only the malodor. […] The fabric spray base was an aqueous solution containing 75% distilled water, 20% ethanol, and 5% of non-ionic surfactant. […] The scores reported are therefore the average of 14 replications. The ionones and irones tested were racemic mixtures of their respective α, β, and γ-isomers. The table sets forth what is believed to be the dominant isomer. Apparent duplications (Tests 5, 6 and 8; Tests 10 and 11) are tests on substances obtained from different sources, and have different mixtures of isomers. […] The ionones tested were mixtures of α, β and γ isomers; the table sets for the dominant isomer.

[3] = Malodor evaluation panel, cigarette smoke on cotton swatches; conditions: for (Score of Acid) − (Score of Combination) / (Score of Ketone) − (Score of Combination): cigarette smoke malodor; for Score of Ketone Alone @ 1%: average of 14, Table 3
Description: The source of the malodor tested was cigarette smoke. Swatches of 100% untreated cotton fabric were cut into 15 cm (6-inch) squares and were placed in large plastic containers. Two cigarettes were smoked up inside the plastic containers containing the swatches with closed lids. The environment inside each closed container was allowed to equilibrate for 24 hours. Onto each swatch, 3.0 grams of a composition was sprayed. As a control, 3.0 grams of water was sprayed on certain swatches. Each swatch was placed in the middle of a two by two foot (61×61 cm) cubicle and all doors were closed. Actual testing began after thirty minutes. Each member of the panel was asked to sniff the malodor control first and was notified that the control has a rating of 7—indicating very strong malodor. They were then asked to proceed to sniff the other samples and provide a rating for malodor remaining. Thus, the remaining malodor was evaluated on a sliding scale, with 1 being very weak malodor. The panelists were instructed to ignore any fragrance that they may detect and rate only the malodor. […] Neodol 91-8 and the fabric spray base were the same as those described in Example 1.

[4] = Malodor evaluation panel, synthetic bathroom malodor on cotton swatches
Text: A malodor evaluation panel of 14 persons was assembled and asked to evaluate the odor neutralizing effectiveness of citric acid and dihydro-β-ionone, either alone or in combination. The source of the malodor tested was synthetic bathroom malodor.
Swatches of 100% untreated cotton fabric were cut into 15 cm (6-inch) squares and were placed on weighing boats. 0.5 grams of synthetic bathroom malodor was pipetted onto each of the swatches. A period of three minutes was allowed for the malodor to be absorbed by the fabric.
Onto each swatch, 3.0 grams of a composition was sprayed. As a control, 3.0 grams of water was sprayed on certain swatches.
Each swatch was placed in the middle of a two by two foot (61×61 cm) cubicle and all doors were closed. Actual testing began after thirty minutes.
They were then asked to proceed to sniff the other samples and provide a rating for malodor remaining. Thus, the remaining malodor was evaluated on a sliding scale, with 1 being very weak malodor. The panelists were instructed to ignore any fragrance that they may detect and rate only the malodor.
For the spray compositions containing citric acid or dihydro-β-ionone alone, each spray composition (having a total weight of 20.00 g) consisted of:
For the spray composition containing both citric acid and dihydro-β-ionone, the spray composition (having a total weight of 20.00 g) consisted of:
Neodol 91-8 and the fabric spray base were the same as those described in Example 1.
Each panelist tested citric acid, dihydro-β-ionone, and their combinations. The scores reported are therefore the average of 14 replications.
The results are summarized in Table 6, in which the scores reported are the average of 14 replications.

[5] = remaining synthetic bathroom malodor, scale 1-7, Table 6
[6] = remaining synthetic bathroom malodor, scale 1-7
[7] = remaining cigarette smoke malodor, scale 1-7
[8] = remaining cigarette smoke malodor, scale 1-7, ketone 1% + citric acid 1%

| Molecule | Score of Ketone Alone @ 1% [1, 5] | Score of Combination @ 1% + 1% [1, 6] | (Score of Acid) − (Score of Combination) [1] | (Score of Ketone) − (Score of Combination) [1] | (Score of Ketone) − (Score of Combination) [2] | (score of citric acid) − (score of combination) [2] | Score of combination 1% + 1% [2] | Score alone 1% (alicyclic ketone) [2] | further results |
| --- | --- | --- | --- | --- | --- | --- | --- | --- | --- |
| CCC(=O)C=CC1C(C)=CCCC1(C)C (centres unmarked) [1-(2,6,6-trimethyl-2-cyclohexen-1-yl)pent-1-en-3-one] | 2.80 | 2.70 | 2.50 | 0.10 |  |  |  |  |  |
| CC(C)(C)C1CCCCC1=O (centres unmarked) [2-tert-butylcyclohexanone] | 4.50 | 4.10 | 0.20 | 0.40 |  |  |  |  |  |
| CCC(C)(C)C1CCC(=O)CC1 [4-tert-pentylcyclohexanone] |  |  |  |  | 0.60 | 0.50 | 2.90 | 3.50 | (Score of Acid) − (Score of Combination) ([3]; acid = citric acid): 0.80; (Score of Ketone) − (Score of Combination) ([3]; combination with citric acid): 0.30; Score of Ketone Alone @ 1% [3, 7]: 3.40; Score of Combination @ 1% + 1% [3, 8]: 3.10 |
| CC(=O)CCC1=C(C)CCCC1(C)C [dihydro-β-ionone] |  |  |  |  | 1.40 | 0.80 | 2.50 | 3.90 | Score of Combination @ 1% + 1% ([4]; remaining synthetic bathroom malodor, scale 1-7, ketone 1% + citric acid 1%): 3.60; (Score of Acid) − (Score of Combination) ([4]; synthetic bathroom malodor, acid = citric acid): 1.40; (Score of Ketone) − (Score of Combination) ([4]; synthetic bathroom malodor, combination with citric acid): 0.10; Score of Ketone Alone @ 1% ([1]; remaining synthetic bathroom malodor, scale 1-7, Table 5): 3.70 |
| CCC(=O)/C=C/C1=C(C)CCCC1(C)C [methyl β-ionone] |  |  |  |  | 0.10 | 0.90 | 3.40 | 3.50 |  |
| C=CCCCCCCCCC(=O)O [undecylenic acid] |  |  |  |  |  |  |  |  | Score of Undecylenic Acid @ 1% ([3]; remaining cigarette smoke malodor, scale 1-7, undecylenic acid alone): 4.20; Score of Undecylenic Acid @ 1% ([1]; remaining synthetic bathroom malodor, scale 1-7, undecylenic acid alone, in the test of that line): 5.00 and 4.30 and 5.10 and 5.20 |
| CC(=O)/C=C/C1C(C)=CCCC1(C)C (stereo not drawn) [α-ionone] |  |  |  |  | 1.10 | 0.10 | 3.10 | 4.20 |  |
| CC(=O)/C=C/C1C(C)=CCC(C)C1(C)C (stereo not drawn) [α-irone] |  |  |  |  | 0.20 | 0.00 | 3.70 | 3.90 |  |
| CC(=O)/C=C/C1=C(C)CCCC1(C)C [β-ionone] | 4.60 | 3.30 | 1.80 | 1.30 | 0.70 | 1.00 | 3.10 | 3.80 |  |
| citric acid |  |  |  |  |  |  |  |  | Score of Citric Acid @ 1% ([3]; remaining cigarette smoke malodor, scale 1-7, citric acid alone, in the test of that line): 3.90 and 4.80; Score of Citric Acid @ 1% ([4]; remaining synthetic bathroom malodor, scale 1-7, citric acid alone): 5.00 |
| methyl α-ionone | 3.80 | 3.40 | 1.60 | 0.40 |  |  |  |  | (Score of Acid) − (Score of Combination) ([3]; acid = citric acid): 1.10; (Score of Acid) − (Score of Combination) ([3]; acid = undecylenic acid): 1.40; (Score of Ketone) − (Score of Combination) ([3]; combination with citric acid): 0.50; (Score of Ketone) − (Score of Combination) ([3]; combination with undecylenic acid): 0.10; Score of Ketone Alone @ 1% [3, 7]: 4.20; Score of Combination @ 1% + 1% [3, 8]: 3.70; Score of Combination @ 1% + 1% ([3]; remaining cigarette smoke malodor, scale 1-7, ketone 1% + undecylenic acid 1%): 2.80 |
